Test results from ChEMBL document CHEMBL1123275, “Synthesis and renal vasodilator activity of some dopamine agonist 1-aryl-2,3,4,5-tetrahydro-1H-3-benzazepine-7,8-diols: halogen and methyl analogues of fenoldopam” (J Med Chem, 1986).
The source made the active and inactive calls. The calls are words filed in the database; no cut-off is given here.

Tests used:
Rattus norvegicus [1] = assay: Compound was tested for its CNS activity in vivo by determining drug-induced rotation in rats with 6-hydroxydopamine induced lesions of the SNx rats after ip administration measured as dose-turns; 10-no significant activity; type: functional, organism-based; settings: Central nervous system
Rattus norvegicus [2] = species: Rattus norvegicus; assay: In vitro inhibition of dopamine stimulated production of [14C]cAMP from [14C]-ATP in homogenates of rat caudate at the concentration of 10 uM; type: functional
Rattus norvegicus [3] = species: Rattus norvegicus; assay: In vitro dose stimulating D-1 adenylate cyclase in rat caudate nuclei at 10 uM; type: functional
Canis familiaris [4] = assay: Renal vasodilator activity was determined in anesthetized dogs; type: functional; settings: Canis lupus familiaris
Canis familiaris [5] = assay: cardiovascular activity was determined in anesthetized dogs.(Heart rate ); type: functional; settings: Canis lupus familiaris
Canis familiaris [6] = assay: cardiovascular activity was determined in anesthetized dogs.(Mean arterial blood pressure); type: functional; settings: Canis lupus familiaris
Canis familiaris [7] = species: Canis familiaris; assay: Effective dose against Iliac vascular resistance (IVR); type: functional; settings: Canis lupus familiaris
Rattus norvegicus [8] = assay: Compound was tested for its CNS activity in vivo in SNx rats with 6-hydroxydopamine induced lesions after ic administration; type: functional, Central nervous system
Rattus norvegicus [9] = assay: Compound was tested for its CNS activity in vivo in SNx rats with 6-hydroxydopamine induced lesions after ip administration; type: functional, Central nervous system
Canis familiaris [10] = species: Canis familiaris; assay: Maximum percent decrease in renal vascular resistance.; type: functional, Canis lupus familiaris
Canis familiaris [11] = assay: Renal vasodilator activity in anesthetized dogs; I= no significant activity at 300 ug/kg/min; type: functional, organism-based; settings: Canis lupus familiaris
Rattus norvegicus [12] = species: Rattus norvegicus; assay: In vitro inhibition of dopamine stimulated production of [14C]-cAMP from [14C]-ATP in homogenates of rat caudate; type: functional
Rattus norvegicus [13] = species: Rattus norvegicus; assay: (§1) In vitro dose stimulating D-1 adenylate cyclase in rat caudate nuclei; No significant activity at 10 uM; type: functional
Rattus norvegicus [14] = species: Rattus norvegicus; assay: In vitro inhibition of dopamine stimulated production of [14C]cAMP from [14C]-ATP in homogenates of rat caudate; No significant activity at 10 uM; type: functional
Canis familiaris [15] = assay: Cardiovascular activity was determined in anesthetized dogs.(Heart rate ); type: functional; settings: Canis lupus familiaris
Canis familiaris [16] = assay: Cardiovascular activity was determined in anesthetized dogs.(Mean arterial blood pressure); type: functional; settings: Canis lupus familiaris, Artery
Rattus norvegicus [17] = species: Rattus norvegicus; assay: In vitro dose stimulating D-1 adenylate cyclase in rat caudate nuclei; type: functional, organism-based
Rattus norvegicus [18] = species: Rattus norvegicus; assay: In vitro inhibition of dopamine stimulated production of [14C]cAMP from [14C]-ATP in homogenates of rat caudate at the concentration of 1 uM; type: functional
Canis familiaris [19] = assay: Renal vasodilator activity in anesthetized dogs; no significant activity at 1000 ug/kg/stat; type: functional, organism-based; settings: Canis lupus familiaris
Rattus norvegicus [20] = species: Rattus norvegicus; assay: In vitro dose stimulating D-1 adenylate cyclase in rat caudate nuclei as % dopamine response at 10 uM; type: functional
Rattus norvegicus [21] = species: Rattus norvegicus; assay: as §1; type: functional; remark: listed apart in the source
Rattus norvegicus [22] = assay: Compound was tested for its CNS activity in vivo in SNx rats with 6-hydroxydopamine induced lesions after ip administration measured as dose-turns; 10-No significant activity; type: functional, organism-based; settings: Central nervous system

Row | Structure (SMILES) | ED15 (Canis familiaris [4]) | ED20 (Canis familiaris [5]) | ED20 (Canis familiaris [6]) | ED30 (Canis familiaris [7]) | RD500 (Rattus norvegicus [9]) | Decrease (Canis familiaris [10]) | EC50 (Rattus norvegicus [17]) | other results
1 | Oc1ccc(C2CNCCc3c2cc(O)c(O)c3C(F)(F)F)cc1 (stereo unspecified) | – | – | – | – | – | – | – | RD500 (Rattus norvegicus [1]): inactive
2 | Br.CN1CCc2c(cc(O)c(O)c2F)C(c2ccc(O)cc2)C1 (stereo unspecified) | – | – | – | – | – | – | – | inhibition (Rattus norvegicus [2]): 55%; Stimulation (Rattus norvegicus [3]): 36%
3 | Br.Oc1cc2c(c(Cl)c1O)CCNCC2c1ccccc1 (stereo unspecified) | 0.0035 mg/kg | 0.378 mg/kg | 6.07 mg/kg | 2.92 mg/kg | 0.3 mg/kg | 39% | – | RD500 (Rattus norvegicus [8]): 0.22 ug rat-1
4 | Br.Cc1c(O)c(O)cc2c1CCN(C)CC2c1ccccc1 (stereo unspecified) | – | – | – | – | 0.05 mg/kg | – | – | Activity (Canis familiaris [11]): inactive; IC50 (Rattus norvegicus [12]): 440 nM; Stimulation (Rattus norvegicus [3]): 20%
5 | Cc1c(O)c(O)c(Cl)c2c1CCNCC2c1ccc(O)cc1.Cl (stereo unspecified) | 0.03 mg/kg | 6.09 mg/kg | 6.09 mg/kg | 6.09 mg/kg | – | 42% | – | inhibition (Rattus norvegicus [2]): 29%; Stimulation (Rattus norvegicus [13]): inactive
6 | Cc1c(O)c(O)c(Cl)c2c1C(c1ccc(O)cc1)CNCC2 (stereo unspecified) | – | – | – | – | – | – | – | inhibition (Rattus norvegicus [14]): inactive; Stimulation (Rattus norvegicus [13]): inactive
7 | Br.Oc1cc2c(c(F)c1O)CCNCC2c1ccccc1 (stereo unspecified) | 0.009 mg/kg | – | – | 54 mg/kg | – | 36% | 40 nM | ED20 (Canis familiaris [15]): 54 mg/kg; ED20 (Canis familiaris [16]): 54 mg/kg; inhibition (Rattus norvegicus [2]): 17%; inhibition (Rattus norvegicus [18]): 31%
8 | Br.Oc1cc2c(c(Br)c1O)CCNCC2c1ccccc1 (stereo unspecified) | 0.009 mg/kg | 6.08 mg/kg | 6.08 mg/kg | 6.08 mg/kg | 0.34 mg/kg | 42% | 100 nM | –
9 | CN1CCc2cc(O)c(O)cc2C(c2ccccc2)C1.Cl (stereo unspecified) | – | – | – | – | 0.1 mg/kg | – | – | Activity (Canis familiaris [19]): inactive; IC50 (Rattus norvegicus [12]): 630 nM; Stimulation (Rattus norvegicus [3]): 20%; RD500 (Rattus norvegicus [8]): 0.06 ug rat-1
10 | CN1CCc2c(cc(O)c(O)c2Cl)C(c2ccc(O)cc2)C1 (stereo unspecified) | – | – | – | – | – | – | 22000 nM | IC50 (Rattus norvegicus [12]): 1400 nM
11 | Br.Oc1ccc(C2CNCCc3c2cc(O)c(O)c3I)cc1 (stereo unspecified) | 0.0042 mg/kg | 6.06 mg/kg | 6.06 mg/kg | 6.06 mg/kg | – | 41% | – | inhibition (Rattus norvegicus [2]): 55%; Stimulation (Rattus norvegicus [20]): 36%
12 | Cl.Oc1c(O)c(Cl)c2c(c1Cl)CCNCC2c1ccccc1 (stereo unspecified) | 0.01 mg/kg | 6.08 mg/kg | 6.08 mg/kg | 6.08 mg/kg | – | 59% | 1250 nM | inhibition (Rattus norvegicus [14]): inactive
13 | Oc1cc2c(cc1O)C(c1ccccc1)CNCC2 (stereo unspecified) [SKF-38393] | 0.035 mg/kg | 1.05 mg/kg | 1.72 mg/kg | 0.735 mg/kg | 0.7 mg/kg | 18% | – | RD500 (Rattus norvegicus [8]): 0.18 ug rat-1
14 | Cl.Oc1ccc(C2CNCCc3c(Cl)c(O)c(O)c(Cl)c32)cc1 (stereo unspecified) | 0.62 mg/kg | 6.2 mg/kg | 6.2 mg/kg | 6.2 mg/kg | – | 41% | 2600 nM | RD500 (Rattus norvegicus [1]): inactive
15 | NCCc1ccc(O)c(O)c1 [DOPAMINE] | 0.0035 mg/kg | 0.378 mg/kg | – | 0.151 mg/kg | – | 43% | – | ED20 (Canis familiaris [16]): 0.378 mg/kg; RD500 (Rattus norvegicus [8]): 0.1 ug rat-1
16 | Br.Oc1ccc(C2CNCCc3c2cc(O)c(O)c3F)cc1 (stereo unspecified) | 0.00083 mg/kg | 0.00581 mg/kg | 6.06 mg/kg | 6.06 mg/kg | – | 28% | 200 nM | –
17 | Br.Oc1ccc(C2CNCCc3cc(O)c(O)c(Cl)c32)cc1 (stereo unspecified) | – | – | – | – | – | – | – | EC50 (Rattus norvegicus [21]): Not Active; inhibition (Rattus norvegicus [14]): inactive
18 | Br.Cc1c(O)c(O)cc2c1C(c1ccc(O)cc1)CNCC2 (stereo unspecified) | – | – | – | – | – | – | – | EC50 (Rattus norvegicus [21]): Not Active; inhibition (Rattus norvegicus [14]): inactive
19 | Br.Oc1ccc(C2CNCCc3c(F)c(O)c(O)c(F)c32)cc1 (stereo unspecified) | – | – | – | – | – | – | – | EC50 (Rattus norvegicus [21]): Not Active; inhibition (Rattus norvegicus [14]): inactive
20 | Cc1c(O)c(O)c(C)c2c1CCNCC2c1ccc(O)cc1 (stereo unspecified) | – | – | – | – | – | – | – | inhibition (Rattus norvegicus [14]): inactive; Stimulation (Rattus norvegicus [13]): inactive
21 | CS(=O)(=O)O.Cc1c(O)c(O)cc2c1CCNCC2c1ccc(O)cc1 (stereo unspecified) | 0.0028 mg/kg | 6.06 mg/kg | 6.06 mg/kg | 6.06 mg/kg | – | 41% | – | inhibition (Rattus norvegicus [2]): 50%; Stimulation (Rattus norvegicus [3]): 30%
22 | Br.Oc1cccc(C2CNCCc3c2cc(O)c(O)c3Cl)c1 (stereo unspecified) | 0.00035 mg/kg | 0.36 mg/kg | 2.12 mg/kg | 0.0119 mg/kg | – | 49% | – | RD500 (Rattus norvegicus [1]): inactive
23 | Br.Cc1c(O)c(O)cc2c1CCNCC2c1ccccc1 (stereo unspecified) | – | – | – | – | 1.28 mg/kg | – | 100 nM | –
24 | Br.Oc1ccc(C2CNCCc3c2cc(O)c(O)c3Br)cc1 (stereo unspecified) | 0.005 mg/kg | 30.4 mg/kg | 30.4 mg/kg | 0.07 mg/kg | – | 56% | 150 nM | RD500 (Rattus norvegicus [1]): inactive
25 | Br.CN1CCc2c(cc(O)c(O)c2Br)C(c2ccccc2)C1 (stereo unspecified) | – | – | – | – | 0.015 mg/kg | – | – | IC50 (Rattus norvegicus [12]): 320 nM; Stimulation (Rattus norvegicus [3]): 30%
26 | CN1CCc2c(cc(O)c(O)c2Cl)C(c2ccccc2)C1.Cl (stereo unspecified) | – | – | – | – | 0.03 mg/kg | – | – | IC50 (Rattus norvegicus [12]): 600 nM; Stimulation (Rattus norvegicus [3]): 30%
27 | Oc1ccc(C2CNCCc3cc(O)c(O)cc32)cc1 (stereo unspecified) | – | – | – | – | – | – | 200 nM | RD500 (Rattus norvegicus [22]): inactive
28 | CS(=O)(=O)O.Oc1ccc(C2CNCCc3c2cc(O)c(O)c3Cl)cc1 (stereo unspecified) [FENOLDOPAM MESYLATE] | 0.0003 mg/kg | 1.82 mg/kg | 1.82 mg/kg | 1.82 mg/kg | 0.5 ug rat-1 | 59% | 48 nM | RD500 (Rattus norvegicus [1]): inactive
